Among the data in US8017612B2, “Piperazine compound and use thereof as a HCV polymerase inhibitor” (priority 2006, dated 2011) are IC50 values, retold here.

In test [1] the target is T1, HCV polymerase (NS5B) type 1b (Hepatitis C virus genotype 1b, UniProt P26663).
T1 construct: a region encoding NS5B (J Virol 1991 March, 65(3), 1105-13, 544 amino acids after deletion of 47 amino acids on the C-terminal); 6xHis (C); made in house; host or cells: Escherichia coli
As to the kind of experiment: Assay of enzyme (HCV polymerase) inhibitory activity, type 1b enzyme. The format is biochemical, HCV BK strain (type 1b). Conditions: HCV polymerase inhibitory activity (IC50), 1b, type 1b enzyme 0.5 μg/ml, 25° C., 60 min. The method, boiled down:
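NS5B from HCV BK strain (type 1b), C-terminal 47 aa deleted, C-terminal His6-tagged, E. coli-expressed, 0.5 μg/ml, with ~450 nt substrate RNA carrying the 3′ UTR (polyU, 3′X) at 5 μg/ml. Incubation 60 min at 25 °C with 50 μM ATP/GTP/CTP, 2 μM UTP plus [3H]UTP, pH 7.5 Tris.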

Test [2] concerns the target T2, HCV polymerase (NS5B) type 1a (Hepatitis C virus genotype 1a, UniProt P26664).
T2 construct: made in house; host or cells: Escherichia coli (by the 'similar method' of the 1b enzyme)
The test can be described thus: Assay of enzyme (HCV polymerase) inhibitory activity, type 1a enzyme. The test is classed as biochemical, HCV type 1a (cloned from the blood of patients). Conditions: HCV polymerase inhibitory activity (IC50), 1a, type 1a enzyme 1.5 μg/ml, 25° C., 60 min. The method, boiled down:
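Patient-derived type 1a NS5B (C-terminal 47-aa deletion, His-tagged, E. coli-expressed) at 1.5 μg/ml was reacted with 5 μg/ml 3′UTR-containing substrate RNA, 50 μM ATP/GTP/CTP, 2 μM UTP plus [3H]UTP, pH 7.5, 25° C for 60 min. TCA-precipitated RNA radioactivity was counted; IC50 from ± compound.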

pIC50: −log10 of the molar value.

In general, pIC50 refers to −log10 of the IC50, conventionally taken in molar units. Lower therefore signals a high IC50.

As to `CCCc1ccc(S(=O)(=O)N2CCN(c3nc(COC)c(C(=O)O)s3)C[C@@H]2C(=O)NCc2ccc(C(C)C)cc2)cc1` [Example 394, 2-[(R)-3-(4-isopropyl-benzylcarbamoyl)-4-(4-propyl-benzenesulfonyl)-piperazin-1-yl]-4-methoxymethyl-thiazole-5-carboxylic acid], the pIC50 in test [1] and in test [2] was greater than 7.00 throughout.
As for `CC(=O)N1CCN(S(=O)(=O)c2ccc(C(C)C)cc2)[C@@H](C(=O)NCCc2ccncc2)C1` [Example 395, (R)-4-acetyl-1-(4-isopropyl-benzenesulfonyl)-piperazine-2-carboxylic acid (2-pyridin-4-yl-ethyl)-amide], the pIC50 in test [1] and in test [2] was less than 6.00 in each case.
`CC(=O)N1CCN(S(=O)(=O)c2ccc(C(C)C)cc2)[C@@H](C(=O)NCCc2ccccn2)C1` [Example 396, (R)-4-acetyl-1-(4-isopropyl-benzenesulfonyl)-piperazine-2-carboxylic acid (2-pyridin-2-yl-ethyl)-amide]: the pIC50 in test [1] and in test [2] was less than 6.00 in each case.
Turning to `CC(=O)N1CCN(S(=O)(=O)c2ccc(C(C)C)cc2)[C@@H](C(=O)NCCc2cccnc2)C1` [Example 397, (R)-4-acetyl-1-(4-isopropyl-benzenesulfonyl)-piperazine-2-carboxylic acid (2-pyridin-3-yl-ethyl)-amide], the negative logarithm of the IC50 (pIC50) in test [1] and in test [2] was less than 6.00 in each case.
For the molecule `Cc1nc(N2CCN(S(=O)(=O)c3ccc(OC(F)(F)F)cc3)[C@@H](C(=O)NCc3ccc(N4CCC4)cc3)C2)sc1C(=O)O` [Example 398, 2-[(R)-3-(4-azetidin-1-yl-benzylcarbamoyl)-4-(4-trifluoromethoxy-benzenesulfonyl)-piperazin-1-yl]-4-methyl-thiazole-5-carboxylic acid], the pIC50 in test [1] was greater than 7.00; in test [2], 6.00 to 7.00.
In the case of `CN(C)c1ccc(CNC(=O)[C@H]2CN(c3cnc(C(=O)O)cn3)CCN2S(=O)(=O)c2ccc(OC(F)(F)F)cc2)cc1` [Example 399, (R)-3-(4-dimethylamino-benzylcarbamoyl)-4-(4-trifluoromethoxy-benzenesulfonyl)-3,4,5,6-tetrahydro-2H-[1,2′]bipyrazinyl-5′-carboxylic acid], the pIC50 in test [1] and in test [2] was greater than 7.00 each time.
Regarding `CC(=O)N1CCN(S(=O)(=O)c2ccc(C3CC3)cc2)[C@@H](C(=O)NCc2ccc(C(C)C)cc2)C1` [Example 400, (R)-4-acetyl-1-(4-cyclopropyl-benzenesulfonyl)-piperazine-2-carboxylic acid 4-isopropyl-benzylamide], the pIC50 in test [1] and in test [2] was greater than 7.00 throughout.
In the case of `Cc1nc(N2CCN(S(=O)(=O)c3ccc(OC(F)(F)F)cc3)[C@@H](C(=O)NCc3ccccc3)C2)sc1C(=O)O` [Example 401, 2-[(R)-3-benzylcarbamoyl-4-(4-trifluoromethoxy-benzenesulfonyl)-piperazin-1-yl]-4-methyl-thiazole-5-carboxylic acid], the pIC50 is 6.00 to 7.00 in test [1] and less than 6.00 in test [2].
Turning to `CC(=O)N1CCN(S(=O)(=O)c2ccc(C(C)C)cc2)[C@@H](C(=O)NCCN2CCCCC2)C1` [Example 402, (R)-4-acetyl-1-(4-isopropyl-benzenesulfonyl)-piperazine-2-carboxylic acid (2-piperidin-1-yl-ethyl)-amide], the negative logarithm of the IC50 (pIC50) in test [1] and in test [2] was less than 6.00 throughout.
As to `CC(=O)N1CCN(S(=O)(=O)c2ccc(C(C)C)cc2)[C@@H](C(=O)NCCN2CCOCC2)C1` [Example 403, (R)-4-acetyl-1-(4-isopropyl-benzenesulfonyl)-piperazine-2-carboxylic acid (2-morpholin-4-yl-ethyl)-amide], the pIC50 in test [1] and in test [2] was less than 6.00 in each case.
Regarding `CC(=O)N1CCN(S(=O)(=O)c2ccc(C(C)C)cc2)[C@@H](C(=O)NCCCN2CCOCC2)C1` [Example 404, (R)-4-acetyl-1-(4-isopropyl-benzenesulfonyl)-piperazine-2-carboxylic acid (3-morpholin-4-yl-propyl)-amide], the pIC50 in test [1] and in test [2] was less than 6.00 in each case.
